# Like-named read-outs stand apart in the source and are kept apart here.
# Key:
# Candida albicans = assay: in vitro antifungal susceptibility testing (MIC, MFC; broth macrodilution), Tables 1-7; format: cell-based; conditions: for MIC: read-out: MIC80 (Minimum inhibitory concentration 80%); for MFC: read-out: MFC (Minimum fungicidal concentration)
# From the text: (§1) The fungi that were employed included two reference strains, C. neoformans var. neoformans H99 and C. albicans A39 and the following clinical isolates: (1) two strains of fluconazole-resistant C. neoformans var. neoformans (135.95 and 114.96); (2) two strains of C. neoformans var. gattii (119.95 and 114.95); (3) two strains of fluconazole-resistant C. albicans (102.96 and 103.96); and (4) one strain each of Torulopsis glabrata (142.91), Candida parapsilosis (111.96), Candida krusei (132.91), C. tropicalis (110.96), Candida lusitaniae (111.92), Fusarium solani (152.89), Aspergillus fumigatus (168.95), and Aspergillus flavus (112.96). Antifungal susceptibility testing was performed using an RPMI-1640 medium (Sigma Chemical Co., St. Louis, Mo.) with glutamine, without sodium bicarbonate, and buffered at pH 7.0 with 0.165 M morpholine-propanesulfonic acid (MOPS).
# (§2) In vitro susceptibility testing in the form of Minimum Inhibitory Concentration (MIC) experiments were performed using the broth macrodilution method according to the recommendations of the National Committee for Clinical Laboratory Standards (see 1995 manual). The only difference compared to the standardized procedure was the choice of drug dilutions ranging from 100 to 0.09 μg/ml. Briefly, this procedure specifies an inoculum grown at 35° C. and adjusted to a concentration of 0.5-2.5×10^3 CFU/ml with an incubation of the test performed at 35° C. and reading at 48 hours for all yeasts except for C. neoformans which is interpreted at 72 hr.
# (§3) Minimum Fungicidal Concentration (MFC) experiments were adapted from a method by McGinnis (McGinnis, M. R., (1980) "Susceptibility testing and bioassay procedure", p. 431, Academic Press, Inc., New York). Briefly, 10 μl aliquots from tubes with growth inhibition were plated onto Sabouraud agar plates.
# (§4) The fungi that were employed included two quality control reference strains, C. neoformans var. neoformansH99 and C. albicans A39 and the following clinical isolates: (1) four strains of C. neoformans var. neoformans (167.95; 135.95; 114.96; and 133.95) of which three were fluconazole-resistant>64 μg/ml (135.95; 114.96; and 133.95); (2) two strains of C. neoformans var. gattii (119.95 and 114.95); (3) two strains of fluconazole-resistant>64 μg/ml C. albicans (102.96 and 103.96); and (4) one strain each of C. glabrata (142.91), Candida parapsilosis (111.96), Candida krusei (132.91), C. tropicalis (110.96), Candida lusitaniae (111.92), Fusarium solani (152.89), Aspergillus fumigatus (168.95), Rhizopus arrhizus (117.89), Paecilomyces lilacinus (137.90), and Aspergillus flavus (112.96). Antifungal susceptibility testing was performed using an RPMI-1640 medium (Sigma Chemical Co., St. Louis, Mo.) with glutamine, without sodium bicarbonate, and buffered at pH 7.0 with 0.165 M morpholinepropanesulfonic acid (MOPS).
# as §3, with “p.431,” for “p. 431,”
# Cryptococcus neoformans = assay: as above; format: cell-based; conditions: for MIC: read-out: MIC80 (Minimum inhibitory concentration 80%); for MFC: read-out: MFC (Minimum fungicidal concentration)
# From the text: as §1, §2, §3, §4
# as §3, with “p.431,” for “p. 431,”
# Candida albicans A39 = assay: antifungal susceptibility testing (MIC, MFC), extended spectrum; format: cell-based; conditions: Candida albicans, A39, read-out: MICs
# From the text: as §1, with “Antifungal susceptibility testing for compounds set forth in Examples 1-20 is discussed hereinbelow. The” for “The”
# as §2
# as §3, with “plates. The lowest drug concentration that yielded three or fewer yeasts colonies was recorded as the MFC.” for “plates.”
# (§5) Antifungal susceptibility testing for compounds set forth in Examples 21-28 is discussed hereinbelow. […]
# (§6) Minimum Fungicidal Concentration (MFC) experiments were adapted from a method by McGinnis (McGinnis, M. R., (1980) "Susceptibility testing and bioassay procedure", p.431, Academic Press, Inc., New York). […] The lowest drug concentration that yielded 3 or fewer yeasts colonies was recorded as the MFC. […]
# [1] = system: Cryptococcus neoformans H99; assay: as above; format: cell-based, C. neoformans var. neoformans; conditions: Cryptococcus neoformans, H99, read-out: MICs
# From the text: as §1, with “Antifungal susceptibility testing for compounds set forth in Examples 1-20 is discussed hereinbelow. The” for “The”
# as §2, with “The only difference compared to the standardized procedure was the choice of drug dilutions ranging from 100 to 0.09 μg/ml.” left out
# as §6, with “p. 431,” for “p.431,”, “three” for “3”
# as §6
# C. albicans 102.96 = assay: as above; format: cell-based, Candida albicans; conditions: Candida albicans, 102.96, read-out: fluconazole-resistant
# From the text: as §1, with “Antifungal susceptibility testing for compounds set forth in Examples 1-20 is discussed hereinbelow. The” for “The”
# as §2
# as §3, with “plates. The lowest drug concentration that yielded three or fewer yeasts colonies was recorded as the MFC.” for “plates.”
# as §4, with “Antifungal susceptibility testing for compounds set forth in Examples 21-28 is discussed hereinbelow. The” for “The”
# (§7) Minimum Fungicidal Concentration (MFC) experiments were adapted from a method by McGinnis (McGinnis, M. R., (1980) "Susceptibility testing and bioassay procedure", p.431, Academic Press, Inc., New York). Briefly, 10 μl aliquots from tubes with growth inhibition were plated onto Sabouraud agar plates. The lowest drug concentration that yielded 3 or fewer yeasts colonies was recorded as the MFC. Several drugs were also rescreened with a subculture of 100 μl aliquots from tubes with no growth and there was no change in MFC.
# C. albicans 103.96 = assay: as above; format: cell-based, Candida albicans; conditions: Candida albicans, 103.96, read-out: fluconazole-resistant
# From the text: as §1, with “Antifungal susceptibility testing for compounds set forth in Examples 1-20 is discussed hereinbelow. The” for “The”
# as §2
# as §7, with “p. 431,” for “p.431,”, “three” for “3”, “MFC.” for “MFC. Several drugs were also rescreened with a subculture of 100 μl aliquots from tubes with no growth and there was no change in MFC.”
# as §4, with “Antifungal susceptibility testing for compounds set forth in Examples 21-28 is discussed hereinbelow. The” for “The”
# as §7
# C. neoformans 114.96 = assay: as above; format: cell-based, C. neoformans var. neoformans; conditions: Cryptococcus neoformans, read-out: fluconazole-resistant
# From the text: as §1, with “Antifungal susceptibility testing for compounds set forth in Examples 1-20 is discussed hereinbelow. The” for “The”
# as §2, with “The only difference compared to the standardized procedure was the choice of drug dilutions ranging from 100 to 0.09 μg/ml.” left out
# as §6, with “p. 431,” for “p.431,”, “three” for “3”
# as §6
# C. neoformans 133.95 = assay: as above; format: cell-based, C. neoformans var. neoformans; conditions: Cryptococcus neoformans, read-out: fluconazole-resistant
# Protocol: as §5
# as §2, with “The only difference compared to the standardized procedure was the choice of drug dilutions ranging from 100 to 0.09 μg/ml.” left out
# as §6
# C. neoformans 135.95 = assay: as above; format: cell-based, C. neoformans var. neoformans; conditions: Cryptococcus neoformans, read-out: fluconazole-resistant
# Protocol: as §5
# as §2, with “The only difference compared to the standardized procedure was the choice of drug dilutions ranging from 100 to 0.09 μg/ml.” left out
# as §6
# [2] = Tables 2-7, three or fewer colonies
# [3] = Table 1, three or fewer colonies
Compound,"MIC (Candida albicans; 35° C., reading at 48 hours) [µg/mL]","MIC (Cryptococcus neoformans; 35° C., 72 hr) [µg/mL]",MFC (Cryptococcus neoformans; [2]) [µg/mL],MFC (Candida albicans; three or fewer colonies) [µg/mL],further results
"C[C@@H]1[C@H](O)[C@@H](C)/C=C/C=C/C=C/C=C/C=C/C=C/C=C/[C@H](O[C@@H]2O[C@H](C)[C@@H](O)[C@H](N)[C@@H]2O)C[C@@H]2O[C@](O)(C[C@@H](O)C[C@@H](O)[C@H](O)CC[C@@H](O)C[C@@H](O)CC(=O)O[C@H]1C)C[C@H](O)[C@H]2C(=O)O [Amphotericin, reference compound]",1,1,,,MIC (Candida albicans A39): 1 µg/mL; MIC [1]: 1 µg/mL
"OC(Cn1cncn1)(Cn1cncn1)c1ccc(F)cc1F [Fluconazole, reference compound]",,,,,"MIC (Candida albicans; 48 h): 0.25 µg/mL; MIC80 (Minimum inhibitory concentration 80%) (Cryptococcus neoformans; 35° C., 72 hr): 2.0 µg/mL; MIC (Cryptococcus neoformans; 72 h): 2 µg/mL; MIC (Candida albicans A39): 0.25 µg/mL; MIC (C. albicans 102.96): > 64 µg/mL; MIC (C. albicans 103.96): > 64 µg/mL; MIC (C. neoformans 114.96): > 64 µg/mL; MIC (C. neoformans 133.95): > 64 µg/mL; MIC (C. neoformans 135.95): > 64 µg/mL"
COc1cc(C(N)=NO)ccc1OCCCOc1ccc(C(N)=NO)cc1OC [Compound 6],> 100,> 100,,,
COc1ccc(-c2nc3ccc(C4=NCCN4)cc3[nH]2)cc1 [Compound 59],25,50,100,,
N=C(N)c1cccc(OCCCCCCOc2cccc(C(=N)N)c2)c1 [Compound 19],1.58,6.25,,12.5,MFC (Cryptococcus neoformans; [3]): 12.5 µg/mL
CCC(CC)NC(=N)c1ccc(-c2ccc(-c3ccc(C(=N)NC(CC)CC)cc3)o2)cc1 [Compound 26],100,12.5,12.5,100,
"N=C(N)c1ccc(OCCCCCOc2ccc(C(=N)N)cc2)cc1 [Pentamidine, reference compound]",,,,,MIC (Candida albicans; 48 h): 0.78 µg/mL; MFC (Candida albicans): 1.56 µg/mL; MIC (Cryptococcus neoformans; 72 h): 3.12 µg/mL; MFC (Minimum fungicidal concentration) (Cryptococcus neoformans; [2]): 6.25 µg/mL; MFC (Cryptococcus neoformans): 6.25 µg/mL
c1cc2nc(-c3ccc(-c4nc5ccc(C6=NCCCN6)cc5[nH]4)cc3)[nH]c2cc1C1=NCCCN1 [Compound 49],1.56,0.78,1.56,3.12,
N=C(N)c1ccc(OCCCCCOc2ccc(C(=N)N)cc2Cl)c(Cl)c1 [Compound 17],3.12,1.56,,6.25,MFC (Cryptococcus neoformans; [3]): 3.12 µg/mL
N=C(N)c1ccc(OCCOc2ccc(C(=N)N)cc2N)c(N)c1 [Compound 2],25,> 100,,,
N=C(N)c1ccc(NCCCNc2ccc(C(=N)N)cc2[N+](=O)[O-])c([N+](=O)[O-])c1 [Compound 10],,,,,MIC (Candida albicans; 48 h): 100 µg/mL; MFC (Candida albicans): 100 µg/mL; MIC (Cryptococcus neoformans; 72 h): 100 µg/mL; MFC (Cryptococcus neoformans): 100 µg/mL
CC(C)NC(=N)c1cccc(-c2ccc(-c3cccc(C(=N)NC(C)C)c3)o2)c1 [Compound 40],100,6.25,6.25,> 100,
c1cc2nc(-c3ccc(-c4nc5ccc(C6=NCCN6)cc5[nH]4)cc3)[nH]c2cc1C1=NCCN1 [Compound 48],0.78,0.78,1.56,6.25,

# Second part, led by results:
"MIC (Candida albicans; 35° C., reading at 48 hours) [µg/mL]","MIC (Cryptococcus neoformans; 35° C., 72 hr) [µg/mL]",Compound,MFC (Cryptococcus neoformans; [2]) [µg/mL],MFC (Candida albicans; three or fewer colonies) [µg/mL],further results
> 100,0.39,N=C(N)c1ccc2nc(-c3ccc(-c4nc5ccc(C(=N)N)cc5[nH]4)cc3)[nH]c2c1 [Compound 47],0.39,,
> 100,> 100,N=C(N)c1ccc2nc(-c3ccc(O)cc3)[nH]c2c1 [Compound 61],> 100,,
0.39,0.19,N=C(N)c1ccc(OCCCOc2ccc(-c3nc4ccc(C(=N)N)cc4[nH]3)cc2)cc1 [Compound 64],0.78,0.78,
3.12,> 100,N=C(N)c1ccc(OCCOc2ccc(C(=N)N)cc2)cc1 [Compound 1],,100,
25,3.12,N=C(N)c1ccc(OCCCCOc2ccc(C(=N)N)cc2)cc1 [Compound 11],,50,MFC (Cryptococcus neoformans; [3]): 6.25 µg/mL
0.78,0.78,N=C(N)c1ccc(Oc2ccc(-c3nc4ccc(C(=N)N)cc4[nH]3)cc2)cc1 [Compound 67],6.25,0.78,
6.25,1.56,N=C(N)c1ccc2nc(C=Cc3nc4ccc(C(=N)N)cc4[nH]3)[nH]c2c1 [Compound 32],3.12,12.5,

# Reference: patent US6326395A, “Antifungal activity of dicationic molecules” (priority 1999, dated 2001)
